Here are results for 3 compounds from patent US10471118B2, “Retinylamine derivitives for treatment of ocular disorders” (CASE WESTERN RESERVE UNIVERSITY, priority 2014, dated 2019).

Molecules are shown by their SMILES. “Also recorded” adds a separate entry of the source.

For series [1], the system named is Abca4^−/−Rdh8^−/− mice. As to the kind of experiment: Light-induced retinal degeneration in Abca4-/-Rdh8-/- mice (OCT, ERG, histology), Example 1. It counts as in vivo, mouse. The note with it: for protection against light-induced retinal degeneration (ONL thickness from OCT): 0.875 μmol per mouse oral gavage 16 h before 10,000 lux 1 h, OCT after 3 days in dark. The method, then: Abca4^−/−Rdh8^−/− double knockout mice were housed in the animal facility at the School of Medicine, Case Western Reserve University, where they were maintained under either complete darkness or a 12-h light (−10 1×) and 12-h dark cycle. All retinylamine tested were dissolved or suspended in 100 μl of vegetable oil with less than 10% (v/v) DMSO and were administered by oral gavage with a 22-gauge feeding needle. Experimental manipulations in the dark were done under dim red light transmitted through a Kodak No. 1 safelight filter (transmittance >560 nm). All animal procedures and experiments were approved by the Case Western Reserve University Animal Care Committees and conformed to recommendations of the American Veterinary Medical Association Panel on Euthanasia and the Association of Research for Vision and Ophthalmology.
After dark adaptation for 48 h, one or two Abca4^−/−Rdh8^−/− mice with pupils dilated by 1% tropicamide were exposed to fluorescent light (10,000 1×; 150-W spiral lamp, Commercial Electric) for 60 min in a white plastic bucket (Papersmith) with food and water and then kept in the dark. Histological and biochemical experiments were performed 3 days after exposure.
Ultra-high resolution spectral-domain OCT (SD-OCT; Bioptigen) and Heidelberg Retinal Angiograph II SLO (Heidelberg Engineering) were used for in vivo imaging of mouse retinas. Mice were anesthetized by intraperitoneal injection of a cocktail (20 μl g-1 body weight) containing ketamine (6 mg ml-1) and xylazine (0.44 mg ml-1) in 10 mM sodium phosphate, pH 7.2, and 100 mM NaCl. Pupils were dilated with 1% tropicamide. Four pictures acquired in the B-scan mode were used to construct each final averaged SD-OCT image.
All ERG procedures were performed by published methods. For single-flash recording, the duration of white-light flash stimuli (from 20 μs to 1 ms) was adjusted to provide a range of illumination intensities (from −3.7 to 1.6 log cd s m-2). Three to five recordings were made at sufficient intervals between flash stimuli (from 3 s to 1 min) to allow recovery from any photobleaching effects.
Mouse eyes were fixed for 24 h by rocking in a fixation solution (2 ml/eye) containing 4% paraformaldehyde and 1% glutaraldehyde in PBS. The tissue was processed through a series of ethanols, xylenes, and paraffins in a Tissue-Tek VIP automatic processor (Sakura, Torrance, Calif., USA), and 5-μm sections were cut using a Microm HM355 paraffin microtome (Thermo Fisher Scientific, Waltham, Mass., USA) and stained with hematoxylin and eosin (H&E) stain. Images of stained sections were captured by a Leica CTR6000 microscope attached to a CCD camera (Micropublisher 5.0 RTV, Qimaging Surray BC, Canada).
The effectiveness of the retinylamine derivatives on preventing light-induced retinal degeneration was tested in four-week old Abca4^−/−Rdh8^−/− mice according to the experimental scheme depicted in FIG. 1. After the mice were dark-adapted for 48 h, the drugs were gavaged at a dose 0.875 μmol/per mouse, which was selected based on the half protection dose for retinylamine after a dosing experiment, FIG. 2. Retinylamine was tested as a control at the same dose. […] Retinal integrity was assessed using optical coherence tomography (OCT). […] The mice without any treatment had photoreceptor cells completely destroyed after light illumination, and were used as a negative control. The retinal integrity was determined based on the thickness of outer nuclear layer (ONL) of the retinas measured from the OCT images. Reduced ONL thickness signifies the decreasing number of photoreceptors and retinal degeneration.

A short description of series [2]: Storage stability of PEG-GFL-NH-Ret conjugate in solid form. It counts as physicochemical. The note with it: room temperature, same condition. The text has this:
The number and weight-average molecular weights of polymer conjugate was 21 and 22 kDa (Mw/Mn=1.05), as determined by size exclusion chromatography. […] The structure of PEG-GFL-NHRet was preserved during the storage in solid form more than 6 months at room temperature, while free Ret-NH2 decomposed in less than 1 week under the same condition.

A short description of series [3]: Pharmacokinetics of PEG-GFL-NH-Ret in C57BL mice (N-retinylamides in liver and eye). It counts as in vivo. To be noted: 1 mg equivalent Ret-NH2 per mouse oral, especially first 8 h after gavage. As to the method:
Female C57BL mice (4-week-old) were randomly divided into two dosing groups. One group of mice was gavaged with one dose of Ret-NH2 (1 mg per mouse, dissolved in DMSO), and the other group of mice was also gavaged once with PEG-GFL-NH-Ret (17.5 mg per mouse, equivalent to 1 mg Ret-NH2 per mouse). Then at each predetermined time point (0, 4 h, 8 h, 24 h, 48 h and 72 h after drug administration), 6 mice were sacrificed. The liver and eye balls were collected to determine tissue N-retinylamide content for pharmacokinetic analysis. A portion of the liver tissue (ca. 0.5 g) was weighed, homogenized in 2 mL 1:1 ethanol:PBS solution and the eye balls were similarly processed. N-Retinylamides were extracted in 4 mL hexane, concentrated, and reconstituted to a 300 μL volume. Normal-phase HPLC (Agilent-Zorbax SIL; 5 μm; 4.5×250 mm; flow rate of 1.4 mL/min; 80:20 hexane:ethyl acetate (v:v); detection at 325 nm) was utilized to determine N-retinylamide concentration in these tissues.

In series [4] the test system is Abca4^−/−Rdh8^−/− mice. Put plainly: Preventing light-induced retinal degeneration with PEG-GFL-NH-Ret in Abca4-/-Rdh8-/- mice. It counts as in vivo, mouse. The method, then: Abca4^−/−Rdh8^−/− mice (male and female, 4-week-old, 4-5 mice in each treatment group) were kept in the dark for 48 h before each experiment. Then free Ret-NH2 (0.5 mg, 1.75 μmol) per mouse) or conjugate PEG-GFL-NH-Ret (8.75 mg per mouse, equivalent to 0.5 mg free Ret-NH2 per mouse) was administered by gastric gavage. Mice were illuminated with 10,000 lux light for 30 min at 1 day, 3 days or 6 days after their gavage, and then kept in the dark for 7 days when final retinal evaluations were performed. […] Dark-adapted mice were anesthetized by the same protocol used for OCT recordings. All experimental procedures were performed under a safety light. A contact lens electrode was placed on the eye, and a reference electrode and ground electrode were placed underneath the skin between the two ears and in the tail, respectively. ERGs were recorded with the universal electrophysiologic system UTAS E-3000 (LKC Technologies, Inc., Gaithersburg, Md.). Light intensity calibrated by the manufacturer was computer-controlled. Mice were placed in a Ganzfeld dome, and scotopic responses to flash stimuli were obtained from both eyes simultaneously.

Take `CC1=C(/C=C/C(C)=C/C=C/C(C)=C/CNC(=O)[C@@H](NC(=O)CN)C(C)C)C(C)(C)CCC1` [RVG, (S)-2-(2-aminoacetamido)-N-((2E,4E,6E,8E)-3,7-dimethyl-9-(2,6,6-trimethylcyclohex-1-en-1-yl)nona-2,4,6,8-tetraen-1-yl)-3-methylbutanamide]: the “average scotopic a wave ERG peak amplitudes” value in the series with Abca4^−/−Rdh8^−/− mice [1] (0.875 μmol per mouse 16 h prior to light illumination, evaluated 7 days later) was “virtually the same as those without light-illumination (NLI)”. In addition, the “protection against light-induced retinal degeneration (ONL thickness from OCT)” value with Abca4^−/−Rdh8^−/− mice [1] was “significant improvement on preventing light-induced retinopathy over retinyl amine”. In addition, the “retina structure by histology (H&E)” value with Abca4^−/−Rdh8^−/− mice [1] (treated before intense light exposure, 7 days after light exposure) is recorded as “maintained intact retina structure; also recorded: protected Abca4^−/−Rdh8^−/− retina from light damage”.

For `CC1=C(/C=C/C(C)=C/C=C/C(C)=C/CN)C(C)(C)CCC1` [Ret-NH2, (2E,4E,6E,8E)-3,7-dimethyl-9-(2,6,6-trimethylcyclohex-1-en-1-yl)nona-2,4,6,8-tetraen-1-amine], in series [2], the “time to decomposition on storage” value was “less than 1 week”. Besides, the “liver concentrations of N-retinylamides” value in series [3] is listed as “much higher liver concentrations of N-retinylamides than those treated with the conjugate”. For the same compound, the “protection against light-induced retinal degeneration by OCT” value in the series on Abca4^−/−Rdh8^−/− mice [4] (0.5 mg Ret-NH2 equivalent per mouse gavaged 1 day before light exposure) is “effective protection against light-induced retinal degeneration”; in the series with Abca4^−/−Rdh8^−/− mice [4] (0.5 mg Ret-NH2 equivalent per mouse gavaged 3 days before light exposure) it was “did not maintain such protection”; in the series on Abca4^−/−Rdh8^−/− mice [4] (0.5 mg Ret-NH2 equivalent per mouse gavaged 6 days before light exposure), “No protective effect”. Moreover, the “ONL thickness from OCT images” value in the series with Abca4^−/−Rdh8^−/− mice [4] (gavaged 1 day before light exposure) is recorded as “thickness comparable to that of mice without light illumination”; in the series on Abca4^−/−Rdh8^−/− mice [4] (gavaged 3 days before strong light illumination), “significantly reduced”. In addition, the ERG responses result in the series on Abca4^−/−Rdh8^−/− mice [4] (gavaged 3 days before strong light exposure) is “significant loss of ERG activity”.

`CC1=C(/C=C/C(C)=C/C=C/C(C)=C/CNC(=O)[C@@H](N)Cc2ccccc2)C(C)(C)CCC1` [RF, (S)-2-amino-N-((2E,4E,6E,8E)-3,7-dimethyl-9-(2,6,6-trimethylcyclohex-1-en-1-yl)nona-2,4,6,8-tetraen-1-yl)-3-phenylpropanamide]: the entries for the “protection against light-induced retinal degeneration (ONL thickness from OCT)” value in the series with Abca4^−/−Rdh8^−/− mice [1] and in the series with Abca4^−/−Rdh8^−/− mice [1] (listed as phenylalanyl) were “low protecting effect” and “little protecting efficacy”, respectively.
